Tests used:
[1] = test system: O. sulcatus; assay: Laboratory (olfactometer) and field tests of attraction; format: in vivo, Otiorhynchus sulcatus
Method: (§1) Volatiles were collected from a bio-active extract of Euonymus fortunei ‘Dart's Blanket’ in paraffin oil and from cuttings of mechanically damaged and O. sulcatus-damaged E. fortunei ‘Dart's Blanket’. The antennal response to these plant odours by O. sulcatus were measured by gas chromatography coupled with electroantennogram detection (GC-EAD). Compounds giving an electrophysiological response were tentatively identified by gas chromatography coupled with mass-spectrometry (GC-MS). […] A selection of plant volatiles that gave an electrophysiological reaction on the antenna were tested as single compounds and in several mixtures of two or more compounds on bioactivity using the olfactometer developed specifically to study vine weevil behaviour (see e.g., Van Tol et al., (2002) Physiological Entomology 27, 213-222). A small selection of compounds bioactive in the lab was tested under field conditions in strawberry.
Experiments were performed on a commercial strawberry field in Oregon (USA). Five different treatments (A, B, C, D and E) and one control were tested in the field. The control consisted of an empty dispenser. […] Traps and dispensers were placed in the fields and monitored for weevils' presence between May and August 2009. […] Traps and plants surrounding each trap-dispenser combination were monitored for weevils weekly. […]

[2] = test system: O. sulcatus; assay: Field experiment: attraction of weevils to odor dispensers in a strawberry field; format: in vivo, Otiorhynchus sulcatus; settings: for number of weevils per replicate (O. sulcatus caught): total of whole season, back-transformed mean, 0.4 ml of each compound per dispenser, control 4.3
Method: A selection of single plant compounds (A=(Z)-2-pentenol and B=(E)-2-hexenol) and combinations of plant compounds (C=A+B in ratio 1:1, D=A+methyl eugenol in ratio 1:1, and E=A+B+methyl eugenol in ratio 1:1:1) were tested in a strawberry field (Fragaria×ananassa ‘Tillamook’) for attraction of O. sulcatus. Choice of compounds and mixtures were based on identification of EAD-active compounds from headspace of weevil-damaged E. fortunei ‘Dart's Blanket’ plants and paraffin oil extract of the same Euonymus plant species combined with bioassay results with the EAD-active compounds alone and in several mixtures (Van Tol, unpublished). The compound (Z)-2-pentenol (purity 95%) was obtained from Bedoukian (Danbury, Conn., USA), (E)-2-hexenol (purity >96%) from Acros (Geel, Belgium) and methyl eugenol (purity >98%) from Sigma-Aldrich (St. Louis, Mo., USA). All chemicals were used without further purification. Single compounds and mixtures were introduced in dispensers prior to use and sealed. In each dispenser 0.4 ml of each compound was present.
Plant volatile dispensers were made of 1.5 ml LDPE Pasteur pipettes (Labo Scientific, Ede, the Netherlands). The compounds to be tested were introduced into the pipette, the tip of which was then sealed by heat. Prior to use, the tip of the pipette was cut off at 1 cm above the reservoir portion. […] The dispenser is a simple and cheap existing design which enables a high release profile especially for larger quantities of plant volatiles. […]
Experiments were performed on a commercial strawberry field in Oregon (USA). […] Traps and dispensers were placed in the fields and monitored for weevils' presence between May and August 2009. […] Traps and plants surrounding each trap-dispenser combination were monitored for weevils weekly. […]

[3] = test system: O. sulcatus antenna; assay: GC-EAD antennal response to plant headspace volatiles; set-up: species or system Otiorhynchus sulcatus; settings: headspace of E. fortunei 'Dart's Blanket' plants and paraffin oil extract; not quantified
Method: as §1
A filtered 10-ml extract of E. fortunei ‘Dart's Blanket’ in paraffin oil (Merck, Uvasol) and four O. sulcatus-damaged and four mechanically damaged 20-cm long cuttings of field-grown E. fortunei ‘Dart's Blanket’ were used for headspace collection. The extract was prepared by crushing 30 g of fresh leaves from the top 15 cm part of stems with 50 ml of paraffin oil on ice. The extract was crushed for approximately 20 min followed by immediately filtering through Whatman No. 90 (diameter 15 cm) paper filter. The filtered Euonymus extract was stored cool until use. Cuttings of Euonymus were mechanically damaged with a scissor by four incisions per leaf three hours prior to headspace collection.
The O. sulcatus-damaged Euonymus cuttings were prepared by offering 10 vine weevils 16 hrs prior to headspace collecting the cuttings. Weevils were removed and cuttings washed with deionized water prior to placing in a fresh 100 ml flask with water for headspace collection. For three days the Euonymus cuttings or a daily refreshed 10-ml paraffin oil extract of Euonymus in an open Petri-dish were placed under a glass bell jar (5 l) in a growth chamber at 20° C. and under long day (L:D=16:8 hr) light conditions. Air was purified by passage through a charcoal filter and drawn at 0.2 l min^−1 through the jar. Volatiles were entrained for a total of 69 hrs. For the collecting of volatiles, Gerstel thermodesorption tubes, filled with 80 mg Tenax TA 20/35 mesh (Grace Alltech), were used. Before use, these tubes were cleaned by rinsing them with 10 ml hexane and, subsequently, flushing them for one hour at 280° C. with 20 ml min purified nitrogen. Each Tenax tube was refreshed after approximately 8 hrs. The volatiles trapped on the Tenax were washed off with 15 ml hexane. […]

SMILES | attractive to O. sulcatus in laboratory and field tests (in words) [1] | attraction of O. sulcatus in strawberry (in words) [2] | number of weevils per replicate (O. sulcatus caught) [2] | antennal (EAD) response [3]
CC/C=C\CO [Treatment A, (Z)-2-pentenol] | attractive | attractive | 11.3 | EAD-active
C=C/C=C(\C)CCC=C(C)C [DMNT] | – | – | – | EAD-positive
CCC/C=C/CO [Treatment B, (E)-2-hexenol] | – | – | 4.3 | EAD-active
CC/C=C\CCO [(Z)-3-hexenol] | – | – | – | EAD-active
